# Assays:
# [1] = Pharmacokinetics after repeated administration (Q7D×3) to rats; format: in vivo
# Experimental: Each rat received a 30 minute infusion once a week for three weeks (Q7D×3).
# Br-IPM being capable of reacting with water and a number of other nucleophiles, for HPLC analysis of Br-IPM, the plasma obtained was frozen and treated with NaF and potassium oxalate.
# [2] = Pharmacokinetics after repeated administration (Q7D×3) to dogs; format: in vivo
# Excerpt: These changes were reversible.
# [3] = system: HT29 Human colorectal cancer cells; test: HT29 xenograft, TH302 in combination with irinotecan; format: in vivo, mice; conditions: CPT-11 monotherapy 50 mg/kg i.p. Q7D×3, vs control group
# Experimental: TH302 and irinotecan (CPT-11) were formulated as follows: TH302 (7.5 mg/mL) in saline and CPT-11 (5 mg/mL) in 2% Tween80-saline. The formulations were filtered through a 0.2 μm filter then delivered to animals within one hour after it was made. HT29 Human colorectal cancer cells were prepared in 50% matrigel and 50% RPMI 1640 medium and implanted (3×10^6 cells) in the subcutaneous space of the right flank of 90 mice (0.2 mL/mouse). Tumor volumes reached about 160 mm^3 on day 12 day post implantation. Seventy two animals with similar tumor size were chosen for treatment after randomization. The remaining mice were used as no treatment control.
# The mice were administered TH302 intravenously at 75 mg/kg, once per week for 2 weeks (Q7D×2, i.v.) alone, and in combination with CPT-11, administered at, 50 mg/kg, (Q7D×3, intraperitoneally (i.p.)). […] After dosing started, tumor volumes were measured twice per week. […] For the mice administered CPT-11 alone, i.e., those on CPT-11 monotherapy, 41% tumor growth inhibition was observed compared to the control group of mice.
# [4] = system: PC-3 human prostate tumor; test: GFP PC3 prostate orthotopic model; format: in vivo, mice
# [5] = system: PC-3 human prostate cells; test: PC-3 luciferase intracardiac metastasis model (bioluminescence); format: in vivo, nude mice
# Experimental: Male nude mice were injected into their left ventricle with PC-3 human prostate cells (3×10^6) transfected with the gene for luciferase. The success of the intracardiac transfections was verified by a bioluminescence scan after the injection. On day 14, the mice with established bone tumor burden were randomized into four treatment groups (N=10): Taxotere® alone (20 mg/kg once a week for three weeks, i.v.), TH302 alone (50 mg/kg daily, 5 days a week for 3 weeks), combination treatment with both agents, and vehicle. Bioluminescence imaging was performed under anesthesia using an IVIS 50 optical imaging system.
# [6] = system: IGROV1 human ovarian cancer cells; test: IGROV1 ovarian cancer xenograft; format: in vivo; conditions: CDDP 4 mg/kg and 6 mg/kg i.p. Q7D×2 (both doses)
# Experimental: Forty nude mice were subcutaneously implanted with IGROV1 human ovarian cancer cells (5×10^6 cells/mouse). The tumor volumes were measured twice weekly starting on day 7. On day 8, tumor volumes reached about 97.7±3.9 mm^3. The mice were randomized in 3 treatment groups that were administered the following: CDDP (4 mg/kg, ip, Q7D×2), CDDP (6 mg/kg, i.p. Q7D×2), and TH302 (75 mg/kg, i.v., Q7D×2). A control group of mice were administered saline. […] Forty five days after the first administration of TH302, tumor growth inhibition was 66%. The tumor growth delay (to 300 mm^3) was 19 days.
# [7] = bromo-IPM in rats after TH302 12.5 mg/kg Q7D×3, Day 15
# [8] = bromo-IPM in rats after TH302 25 mg/kg Q7D×3, Day 15
# [9] = bromo-IPM in rats after TH302 50 mg/kg Q7D×3, Day 15
# [10] = bromo-IPM in dogs after TH302 8 mg/kg Q7D×3, Day 15
# [11] = bromo-IPM in dogs after TH302 16 mg/kg Q7D×3, Day 15
smiles,measurement,setting,value
"O=P(O)(NCCBr)NCCBr [Br-IPM, HO—P(═O)(NHCH2CH2Br)2]",AUC,[1]; [7],107 ng·h/mL
same,Cmax,[1]; [7],286 ng/mL
same,half-life,[1]; [7],8.88 min
same,AUC,[1]; [8],97 ng·h/mL
same,Cmax,[1]; [8],375 ng/mL
same,half-life,[1]; [8],8.28 min
same,AUC,[1]; [9],143 ng·h/mL
same,Cmax,[1]; [9],385 ng/mL
same,half-life,[1]; [9],23 min
same,AUC of the active toxin Br-IPM,"[1]; rats, after TH302 25 mg/kg",about 97 h×ng/mL
same,AUClast,[2]; [10],21.8 ng·h/mL
same,Cmax,[2]; [10],62.7 ng/mL
same,AUClast,[2]; [11],60.7 ng·h/mL
same,Cmax,[2]; [11],146 ng/mL
same,half-life,[2]; [11],18.3 min
same,AUC of the active toxin Br-IPM,"[2]; dogs, after TH302 8 mg/kg",about 21.8 h×ng/mL
"CCc1c2c(nc3ccc(OC(=O)N4CCC(N5CCCCC5)CC4)cc13)-c1cc3c(c(=O)n1C2)COC(=O)[C@]3(O)CC [CPT-11, irinotecan]",tumor growth inhibition,[3],41%
"CC(=O)O[C@@]12CO[C@@H]1C[C@H](O)[C@@]1(C)C(=O)[C@H](O)C3=C(C)[C@@H](OC(=O)[C@H](O)[C@@H](NC(=O)OC(C)(C)C)c4ccccc4)C[C@@](O)([C@@H](OC(=O)c4ccccc4)[C@H]21)C3(C)C [Taxotere®, Docetaxel]",tumor volume regressed to,"[4]; Taxotere 12 mg/kg once a week for two weeks, alone or with TH302",21±15 mm^3
same,tumor volume on day 62,"[4]; Taxotere alone or with TH302, P<0.01 combination vs Taxotere alone",766 mm^3
same,tumor growth delay (TGD),"[4]; single agent, Taxotere 12 mg/kg once a week for two weeks",31 days
same,"toxicities (weight loss, deaths)","[5]; TH302 50 mg/kg daily 5 days a week for 3 weeks, Taxotere 20 mg/kg once a week for three weeks i.v., or both",weight loss and a toxicity-related death
same,bone metastases and soft tissue tumor burden compared to vehicle,"[5]; Taxotere alone 20 mg/kg once a week for three weeks, i.v.",significant reduction in bone metastases and soft tissue tumor burden
"N.N.[Cl][Pt][Cl] [CDDP, reference compound]",reduction in tumor volume,[6],did not show significant reduction in tumor volume

# — patent US8552048B2, “Phosphoramidate alkylator prodrugs for the treatment of cancer” (Threshold Pharmaceuticals, Inc., priority 2006, dated 2013)
